Test results as given in patent publication US12544370B2, “Methods for cancer therapy” (ASCENTAGE PHARMA (SUZHOU) CO., LTD., priority 2018, dated 2026).

System: TKI-resistant patients with chronic phase (CP) or accelerated phase (AP) CML
Assay: Phase I study, safety / treatment related adverse events (Example 1)
Source text: The eligible patients received treatments until disease progression or intolerable toxicities. The primary efficacy endpoint in the CML AP and CP patients, was complete hematological response (CHR) and major cytogenetic response (MCyR) respectively, MCyR includes partial cytogenetic response (PCyR) and complete cytogenetic response (CCyR). Blood samples were collected at various time points on Day 1-2 and Day 27-28 during cycle 1 for PK analyses.
• 3 to 6 subjects in each dose group (traditional 3+3 dose increasing method) • Up to 15 subjects in the MTD dose group (safety and PK characteristics) • Dose extension studies: • Up to 60 subjects (CP/CML-AP) • Extended dose selection is based on initial safety and efficacy Study Endpoints Primary Endpoint

[1] = Example 1, Table 1, 70 patients

How did the “TRAE ALT increased, Any grade” value [1] turn out when `Cc1ccc(C(=O)Nc2ccc(CN3CCN(C)CC3)c(C(F)(F)F)c2)cc1C#Cc1cnc2[nH]ncc2c1` [compound of formula (I-A), 3-(2-(1H-pyrazolo[3,4-b]pyridin-5-yl)ethynyl)-4-methyl-N-(4-((4-methylpiperazin-1-yl)methyl)-3-(trifluoromethyl)phenyl)-benzamide] was run?
Its value is 15 (21%) n (%).

And the “TRAE ALT increased, Grade 3-4” value [1]?
Its value is 0 n (%).

And the “TRAE AST increased, Any grade” value [1]?
Its value is 17 (24%) n (%).

And the “TRAE AST increased, Grade 3-4” value [1]?
The value was 0 n (%).

What about the “TRAE Anaemia, Any grade” value [1] of the same molecule?
The value was 6 (8.6%) n (%).

What about the “TRAE Anaemia, Grade 3-4” value [1] of the same molecule?
The value was 5 (7.1%) n (%).

And the “TRAE CPK increased, Any grade” value [1]?
The value was 18 (26%) n (%).

What about the “TRAE CPK increased, Grade 3-4” value [1] of the same molecule?
Its value is 1 (1.4%) n (%).

And the “TRAE Creatinine increased, Any grade” value [1]?
The value was 4 (5.7%) n (%).

And the “TRAE Creatinine increased, Grade 3-4” value [1]?
Its value is 0 n (%).

And the “TRAE GGT increased, Any grade” value [1]?
The value was 10 (14%) n (%).

What about the “TRAE GGT increased, Grade 3-4” value [1] of the same molecule?
Its value is 0 n (%).

And the “TRAE Hyperbilirubinemia, Any grade” value [1]?
Its value is 20 (29%) n (%).

What about the “TRAE Hyperbilirubinemia, Grade 3-4” value [1] of the same molecule?
The value was 0 n (%).

What about the “TRAE Hyperglycaemia, Any grade” value [1] of the same molecule?
Its value is 5 (7.1%) n (%).

What about the “TRAE Hyperglycaemia, Grade 3-4” value [1] of the same molecule?
Its value is 0 n (%).

And the “TRAE Hypertriglyceridaemia, Any grade” value [1]?
The value was 36 (51%) n (%).

And the “TRAE Hypertriglyceridaemia, Grade 3-4” value [1]?
The value was 2 (2.9%) n (%).

And the “TRAE Hypocalcaemia, Any grade” value [1]?
Its value is 25 (36%) n (%).

And the “TRAE Hypocalcaemia, Grade 3-4” value [1]?
The value was 0 n (%).

And the “TRAE Hypokalaemia, Any grade” value [1]?
The value was 12 (17%) n (%).

And the “TRAE Hypokalaemia, Grade 3-4” value [1]?
Its value is 0 n (%).

What about the “TRAE Hyponatraemia, Any grade” value [1] of the same molecule?
Its value is 5 (7.1%) n (%).

What about the “TRAE Hyponatraemia, Grade 3-4” value [1] of the same molecule?
The value was 0 n (%).

What about the “TRAE Leucocytopenia, Any grade” value [1] of the same molecule?
The value was 12 (17%) n (%).

And the “TRAE Leucocytopenia, Grade 3-4” value [1]?
Its value is 12 (17%) n (%).

What about the “TRAE Myalgia, Any grade” value [1] of the same molecule?
Its value is 11 (16%) n (%).

And the “TRAE Myalgia, Grade 3-4” value [1]?
The value was 0 n (%).

What about the “TRAE Pyrexia, Any grade” value [1] of the same molecule?
The value was 13 (19%) n (%).

What about the “TRAE Pyrexia, Grade 3-4” value [1] of the same molecule?
Its value is 4 (5.7%) n (%).

What about the “TRAE Rash, Any grade” value [1] of the same molecule?
Its value is 9 (13%) n (%).

What about the “TRAE Rash, Grade 3-4” value [1] of the same molecule?
The value was 0 n (%).

What about the “TRAE Skin hyperpigmentation, Any grade” value [1] of the same molecule?
The value was 17 (24%) n (%).

What about the “TRAE Skin hyperpigmentation, Grade 3-4” value [1] of the same molecule?
The value was 0 n (%).

And the “TRAE Skin mass, Any grade” value [1]?
The value was 6 (8.6%) n (%).

What about the “TRAE Skin mass, Grade 3-4” value [1] of the same molecule?
The value was 0 n (%).

What about the “TRAE Thrombocytopenia, Any grade” value [1] of the same molecule?
Its value is 35 (50%) n (%).

What about the “TRAE Thrombocytopenia, Grade 3-4” value [1] of the same molecule?
Its value is 35 (50%) n (%).

And the “TRAEs Hematological, Any grade” value [1]?
Its value is 36 (51%) n (%).

And the “TRAEs Hematological, Grade 3-4” value [1]?
The value was 36 (51%) n (%).

What about the “TRAEs Non-hematological, Any grade” value [1] of the same molecule?
Its value is 67 (96%) n (%).

What about the “TRAEs Non-hematological, Grade 3-4” value [1] of the same molecule?
Its value is 11 (16%) n (%).

What about the “TRAEs Overall, Any grade” value [1] of the same molecule?
Its value is 67 (96%) n (%).

What about the “TRAEs Overall, Grade 3-4” value [1] of the same molecule?
Its value is 44 (63%) n (%).

What about the “ALT increased leading to dose interruption/reduction” value (Example 1, 20 mg (n = 4)) of the same molecule?
The value was 0 n (%).

What about the “AST increased leading to dose interruption/reduction” value (Example 1, 20 mg (n = 4)) of the same molecule?
Its value is 0 n (%).

What about the “Amylase increased leading to dose interruption/reduction” value (Example 1, 20 mg (n = 4)) of the same molecule?
Its value is 1(25%) n (%).

What about the “Anemia leading to dose interruption/reduction” value (Example 1, 20 mg (n = 4)) of the same molecule?
The value was 0 n (%).

What about the “Atrial fibrillation leading to dose interruption/reduction” value (Example 1, 20 mg (n = 4)) of the same molecule?
The value was 0 n (%).

And the “Cardiomyopathy leading to dose interruption/reduction” value (Example 1, 20 mg (n = 4))?
The value was 0 n (%).

What about the “GGT increased leading to dose interruption/reduction” value (Example 1, 20 mg (n = 4)) of the same molecule?
The value was 0 n (%).

What about the “Hyperkalemia leading to dose interruption/reduction” value (Example 1, 20 mg (n = 4)) of the same molecule?
The value was 0 n (%).

And the “Hypertriglyceridemia leading to dose interruption/reduction” value (Example 1, 20 mg (n = 4))?
The value was 0 n (%).

And the “Hypocalcemia leading to dose interruption/reduction” value (Example 1, 20 mg (n = 4))?
The value was 0 n (%).

And the “Lacunar infarction leading to dose interruption/reduction” value (Example 1, 20 mg (n = 4))?
The value was 0 n (%).

And the “Lipase increased leading to dose interruption/reduction” value (Example 1, 20 mg (n = 4))?
The value was 0 n (%).

And the “Thrombocytopenia leading to dose interruption/reduction” value (Example 1, 20 mg (n = 4))?
Its value is 1(25%) n (%).

What about the “ALT increased leading to dose interruption/reduction” value (Example 1, 30 mg (n = 37)) of the same molecule?
The value was 0 n (%).

What about the “AST increased leading to dose interruption/reduction” value (Example 1, 30 mg (n = 37)) of the same molecule?
Its value is 0 n (%).

What about the “Amylase increased leading to dose interruption/reduction” value (Example 1, 30 mg (n = 37)) of the same molecule?
Its value is 0 n (%).

And the “Anemia leading to dose interruption/reduction” value (Example 1, 30 mg (n = 37))?
Its value is 1 n.

What about the “Anemia leading to dose interruption/reduction, percent of cohort” value (Example 1, 30 mg (n = 37)) of the same molecule?
Its value is “(2.7%)”.

And the “Atrial fibrillation leading to dose interruption/reduction” value (Example 1, 30 mg (n = 37))?
The value was 1 n.

What about the “Atrial fibrillation leading to dose interruption/reduction, percent of cohort” value (Example 1, 30 mg (n = 37)) of the same molecule?
The value was “(2.7%)”.

What about the “Cardiomyopathy leading to dose interruption/reduction” value (Example 1, 30 mg (n = 37)) of the same molecule?
The value was 0 n (%).

And the “GGT increased leading to dose interruption/reduction” value (Example 1, 30 mg (n = 37))?
Its value is 0 n (%).

And the “Hyperkalemia leading to dose interruption/reduction” value (Example 1, 30 mg (n = 37))?
Its value is 1 n.

What about the “Hyperkalemia leading to dose interruption/reduction, percent of cohort” value (Example 1, 30 mg (n = 37)) of the same molecule?
The value was “(2.7%)”.

What about the “Hypertriglyceridemia leading to dose interruption/reduction” value (Example 1, 30 mg (n = 37)) of the same molecule?
The value was 1 n.

And the “Hypertriglyceridemia leading to dose interruption/reduction, percent of cohort” value (Example 1, 30 mg (n = 37))?
The value was “(2.7%)”.

And the “Hypocalcemia leading to dose interruption/reduction” value (Example 1, 30 mg (n = 37))?
Its value is 2 n.

What about the “Hypocalcemia leading to dose interruption/reduction, percent of cohort” value (Example 1, 30 mg (n = 37)) of the same molecule?
Its value is “(5.4%)”.

And the “Lacunar infarction leading to dose interruption/reduction” value (Example 1, 30 mg (n = 37))?
Its value is 0 n (%).

And the “Lipase increased leading to dose interruption/reduction” value (Example 1, 30 mg (n = 37))?
The value was 0 n (%).

What about the “Thrombocytopenia leading to dose interruption/reduction” value (Example 1, 30 mg (n = 37)) of the same molecule?
Its value is 12 n.

And the “Thrombocytopenia leading to dose interruption/reduction, percent of cohort” value (Example 1, 30 mg (n = 37))?
The value was “(32%)”.

And the “ALT increased leading to dose interruption/reduction” value (Example 1, 40 mg (n = 37))?
The value was 1 n.

What about the “ALT increased leading to dose interruption/reduction, percent of cohort” value (Example 1, 40 mg (n = 37)) of the same molecule?
Its value is “(2.7%)”.

What about the “AST increased leading to dose interruption/reduction” value (Example 1, 40 mg (n = 37)) of the same molecule?
Its value is 1 n.

What about the “AST increased leading to dose interruption/reduction, percent of cohort” value (Example 1, 40 mg (n = 37)) of the same molecule?
Its value is “(2.7%)”.

What about the “Amylase increased leading to dose interruption/reduction” value (Example 1, 40 mg (n = 37)) of the same molecule?
The value was 0 n (%).

And the “Anemia leading to dose interruption/reduction” value (Example 1, 40 mg (n = 37))?
Its value is 0 n (%).

And the “Atrial fibrillation leading to dose interruption/reduction” value (Example 1, 40 mg (n = 37))?
Its value is 0 n (%).

And the “Cardiomyopathy leading to dose interruption/reduction” value (Example 1, 40 mg (n = 37))?
The value was 0 n (%).

And the “GGT increased leading to dose interruption/reduction” value (Example 1, 40 mg (n = 37))?
The value was 1 n.

What about the “GGT increased leading to dose interruption/reduction, percent of cohort” value (Example 1, 40 mg (n = 37)) of the same molecule?
Its value is “(2.7%)”.

What about the “Hyperkalemia leading to dose interruption/reduction” value (Example 1, 40 mg (n = 37)) of the same molecule?
The value was 0 n (%).

What about the “Hypertriglyceridemia leading to dose interruption/reduction” value (Example 1, 40 mg (n = 37)) of the same molecule?
The value was 0 n (%).

And the “Hypocalcemia leading to dose interruption/reduction” value (Example 1, 40 mg (n = 37))?
The value was 0 n (%).

And the “Lacunar infarction leading to dose interruption/reduction” value (Example 1, 40 mg (n = 37))?
Its value is 0 n (%).

And the “Lipase increased leading to dose interruption/reduction” value (Example 1, 40 mg (n = 37))?
The value was 1 n.
